According to patent publication US6794402B2, “Bicyclic cyclohexylamines and their use as NMDA receptor antagonists” (Warner-Lambert Company, priority 2000, dated 2004):
Where a name gives a salt, the structure may show the parent alone.

Key:
[1] = biological target: T1, [3H]ifenprodil binding site, rat forebrain membranes (Rattus norvegicus, UniProt P35439+Q00960); assay: [3H]Ifenprodil binding assay; conditions: 4 nM [3H]-ifenprodil, 2 hours at room temperature
T1 construct: membrane fraction was prepared from frozen adult rat forebrains; tissue Zivic-Miller Laboratories, Inc; host or cells: adult rat forebrain, washed buffy coat membrane fraction
Description: All buffers and reagents used in assay incubations or to dissolve drugs were prepared using water purified through a Milli-Q reverse osmosis system (Millipore Corp, Bedford, Mass.) and treated with UV emissions. Prior to use in the assays, buffers were further filtered through a sterile Corning filtration unit (Corning Glass Works, Corning, N.Y.) containing a 0.2-micron filter. Buffer used to rinse the membranes on the assay filters was prepared with purified water, but was not refiltered and was stored no longer than 5 days. Stock solutions of the drugs (usually 10 mM) were dissolved in 20 mM HEPES-KOH buffer pH 7.4 (assay buffer) with the addition of 1 to 5 μL of glacial AcOH, if needed to keep them in solution. For eliprodil the stock solution was buffered with the addition of 10% DMSO. All subsequent dilutions from stock were made in buffer.
An extensively washed buffy coat membrane fraction was prepared from frozen adult rat forebrains (Zivic-Miller Laboratories, Inc., Zelienople, Pa.) as described previously (Coughenour L. L., Cordon, J. J., J. Pharmacol. Exp. Ther., 1997;280:584-592) and stored at −80° C. On the day of the assay, pellets were resuspended in 35 mL of assay buffer at pH 7.4 using a Polytron setting 6. After incubation at 37° C. for 30 minutes in a shaking water bath, the homogenate was centrifuged 40,000×g for 10 minutes at 4° C. The pellets were resuspended in fresh buffer and centrifuged 3 more times before final suspension for use in the assay.
[^3H]Ifenprodil Binding. Triplicate incubations were carried out in a volume of 0.5 mL in 1.3 mL polypropylene tubes (Marsh Biomedical Products Inc., Rochester, N.Y.) for 2 hours at room temperature. Incubations contained test agents, membranes (100-200 μg protein) and 4 nM[^3H]-ifenprodil in 20 mM HEPES-KOH buffer, pH 7.4 (assay buffer). Assays were started by addition of the membranes. Bound radioligand was separated by filtration under reduced pressure using a Tomtec Mach II, 96-well cell harvester (Tomtec Inc., Orange, Colo.). Filtration was through Whatman GF/B glass fiber filters (Whatman Ltd, Maidstone, England), which had been soaked for at least 15 minutes in 0.3% polyethylenimine and allowed to air dry. The filters were rinsed with 3 mL of ice cold assay buffer within 6 seconds. Air was allowed to pass through the filters for an additional 10 seconds to remove residual moisture. The filter mat was supported on a cold (−20° C.) teflon support, and filters from individual wells were separated and placed in Mini Poly-Q vials (Beckman Instruments Inc., Fullerton, Calif.) and filled with 4 mL of scintillation cocktail (Beckman Ready Protein^+). Radioactivity retained on the filter was determined by liquid scintillation spectrophotometry. Nonspecific binding was defined as the binding in the presence of 1 mM ifenprodil. Specific binding was 90%.
Data analysis. Binding curves were statistically analyzed for a best one or two site competition fit using GraphPad Prism software (GraphPad Software Inc., San Diego, Calif.). The normalized data was fit by nonweighted nonlinear regression to either [formula]
Control data was entered as 100%, and no parameters were constrained. Inhibition curves were compared by ANOVA with post test comparisons of the logIC50 using Dunnett's multiple comparisons post test or Student's nonpaired, two-tailed t-test (GraphPad InStat software).

T1 sequence (Q00960 27-1482, other chains not shown): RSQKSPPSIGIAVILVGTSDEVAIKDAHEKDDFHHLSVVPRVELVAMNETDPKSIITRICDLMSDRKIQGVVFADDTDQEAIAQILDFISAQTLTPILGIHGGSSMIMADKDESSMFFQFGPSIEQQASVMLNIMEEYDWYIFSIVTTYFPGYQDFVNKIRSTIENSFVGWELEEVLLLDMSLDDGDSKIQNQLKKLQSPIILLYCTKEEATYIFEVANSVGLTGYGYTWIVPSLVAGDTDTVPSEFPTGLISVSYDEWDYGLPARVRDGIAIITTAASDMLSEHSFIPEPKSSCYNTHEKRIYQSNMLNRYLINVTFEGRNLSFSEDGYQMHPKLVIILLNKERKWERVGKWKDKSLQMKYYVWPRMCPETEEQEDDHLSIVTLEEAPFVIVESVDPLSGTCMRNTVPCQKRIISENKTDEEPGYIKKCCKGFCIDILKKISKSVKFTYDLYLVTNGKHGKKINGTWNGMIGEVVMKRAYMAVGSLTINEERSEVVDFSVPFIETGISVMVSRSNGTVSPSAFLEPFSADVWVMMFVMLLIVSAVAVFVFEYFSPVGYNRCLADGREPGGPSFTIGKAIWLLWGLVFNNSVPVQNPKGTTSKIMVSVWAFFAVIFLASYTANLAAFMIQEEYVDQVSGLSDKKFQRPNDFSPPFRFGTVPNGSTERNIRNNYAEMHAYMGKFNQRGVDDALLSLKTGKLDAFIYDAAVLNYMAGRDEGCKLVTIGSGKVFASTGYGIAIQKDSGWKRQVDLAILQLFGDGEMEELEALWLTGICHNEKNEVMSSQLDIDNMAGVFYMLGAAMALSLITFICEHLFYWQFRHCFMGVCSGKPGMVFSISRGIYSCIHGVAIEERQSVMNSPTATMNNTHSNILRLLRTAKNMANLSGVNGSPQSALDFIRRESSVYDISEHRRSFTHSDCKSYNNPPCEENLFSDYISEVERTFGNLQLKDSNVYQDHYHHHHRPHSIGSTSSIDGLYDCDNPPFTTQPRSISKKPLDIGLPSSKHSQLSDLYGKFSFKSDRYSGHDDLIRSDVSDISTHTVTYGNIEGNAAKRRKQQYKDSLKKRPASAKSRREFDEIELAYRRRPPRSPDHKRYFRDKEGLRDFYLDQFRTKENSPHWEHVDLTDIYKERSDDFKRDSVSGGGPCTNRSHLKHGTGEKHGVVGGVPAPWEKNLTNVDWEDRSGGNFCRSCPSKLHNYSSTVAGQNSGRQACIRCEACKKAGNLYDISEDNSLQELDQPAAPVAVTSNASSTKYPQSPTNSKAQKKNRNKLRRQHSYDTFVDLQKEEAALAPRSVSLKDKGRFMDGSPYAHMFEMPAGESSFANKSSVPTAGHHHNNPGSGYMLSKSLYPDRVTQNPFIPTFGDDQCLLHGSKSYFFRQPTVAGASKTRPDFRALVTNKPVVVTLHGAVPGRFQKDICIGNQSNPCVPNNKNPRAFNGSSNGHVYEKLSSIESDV

Structure (SMILES)	melting point	IC50 [1]
C[C@H](CCc1ccccc1)N[C@H]1CC[C@H](c2ccc3[nH]c(=O)oc3c2)CC1 (as salt: HCl) [Example 9, 6-{trans-4-[(R)-1-Methyl-3-phenylpropylamino]cyclohexyl}-3H-benzoxazol-2-one]	291 to 304 °C	
Cc1ccc(CCCN(C)[C@H]2CC[C@H](c3ccc4[nH]c(=O)oc4c3)CC2)cc1 (as salt: HCl) [Example 21, 6-{trans-4-[Methyl-3-(p-Tolylpropyl)amino]cyclohexyl}-3H-benzoxazol-2-one]	213 to 225 °C	
CN(CCOc1ccccc1)[C@H]1CC[C@H](c2ccc3[nH]c(=O)oc3c2)CC1 (as salt: HCl) [Example 22, 6-{trans-4-[Methyl(2-phenoxyethyl)amino]cyclohexyl}-3H-benzoxazol-2-one]	277 to 285 °C	
CN(CCCc1ccc(C(F)(F)F)cc1)[C@H]1CC[C@H](c2ccc3[nH]c(=O)oc3c2)CC1 (as salt: HCl) [Example 23, 6-{trans-4-[Methyl-3-(4-Trifluoromethylphenyl)propylamino]cyclohexyl}-3H-benzoxazol-2-one]	227 to 234 °C	
CN(CCCc1ccc(F)cc1F)[C@H]1CC[C@H](c2ccc3[nH]c(=O)oc3c2)CC1 (as salt: HCl) [Example 24b, 6-(trans-4-{[3-(2,4-Difluorophenyl)propyl]methylamino}cyclohexyl)-3H-benzoxazol-2-one]	269 to 272 °C	
CCN(CCCc1ccc(C(F)(F)F)cc1)[C@H]1CC[C@H](c2ccc3[nH]c(=O)oc3c2)CC1 (as salt: HCl) [Example 26]	248 to 252 °C	
CCN([C@H]1CC[C@H](c2ccc3[nH]c(=O)oc3c2)CC1)[C@H](C)CCc1ccccc1 (as salt: HCl) [Example 27, 6-(trans-4-{Ethyl-[(R)-1-methyl-3-phenylpropyl]amino}cyclohexyl)-3H-benzoxazol-2-one]	139 to 158 °C	
CCN([C@H]1CC[C@H](c2ccc3[nH]c(=O)oc3c2)CC1)[C@@H](C)CCc1ccccc1 (as salt: HCl) [Example 28, 6-(trans-4-{Ethyl-[(S)-1-methyl-3-phenylpropyl]amino}cyclohexyl)-3H-benzoxazol-2-one]	221 to 246 °C	
CN(CCCc1ccc(Cl)cc1Cl)[C@H]1CC[C@H](c2ccc3[nH]c(=O)oc3c2)CC1 [Example 54, 6-(trans-4-{[3-(2,4-Dichlorophenyl)propyl]methylamino}cyclohexyl)-3H-benzoxazol-2-one]		34 nM
CN(CCCc1ccc(F)c(F)c1F)[C@H]1CC[C@H](c2ccc3[nH]c(=O)oc3c2)CC1 [Example 55, 6-(trans-4-{[3-(2,3,4-Trifluorophenyl)propyl]methylamino}cyclohexyl)-3H-benzoxazol-2-one]		5 nM
CC(C)Cc1ccc(CCCN(C)[C@H]2CC[C@H](c3ccc4[nH]c(=O)oc4c3)CC2)cc1 [Example 56, 6-(trans-4-{[3-(4-Isobutylphenyl)propyl]methylamino}cyclohexyl)-3H-benzoxazol-2-one]		71 nM
CN(CCCc1c(F)cc(F)cc1F)[C@H]1CC[C@H](c2ccc3[nH]c(=O)oc3c2)CC1 [Example 57, 6-(trans-4-{[3-(2,4,6-Trifluorophenyl)propyl]methylamino}cyclohexyl)-3H-benzoxazol-2-one]		6 nM
CN(CCCc1nccs1)[C@H]1CC[C@H](c2ccc3[nH]c(=O)oc3c2)CC1 [Example 59, 6-{trans-4-[Methyl(3-thiazol-2-ylpropyl)amino]cyclohexyl}-3H-benzoxazol-2-one]		316 nM
CN(CCN(C)[C@H]1CC[C@H](c2ccc3[nH]c(=O)oc3c2)CC1)c1ccccc1 [Example 60, 6-(trans-4-{Methyl-[2-(Methylphenylamino)ethyl]amino}cyclohexyl)-3H-benzoxazol-2-one]		> 1000 nM
CN(CCCc1ccc(F)cc1)[C@H]1CC[C@H](c2ccc3[nH]c(=O)sc3c2)CC1 [Example 61b, 6-(trans-4-{[3-(4-Fluorophenyl)propyl]methylamino}cyclohexyl)-3H-benzthiazol-2-one]		12 nM
CN(CCCc1ccc(F)cc1)[C@H]1CC[C@H](c2ccc3[nH]c(=O)[nH]c3c2)CC1 [Example 63, 5-(trans-4-{[3-(4-Fluorophenyl)propyl]methylamino}cyclohexyl)-1,3-dihydrobenzoimidazol-2-one]		2 nM
Cc1cc2[nH]c(=O)oc2cc1[C@H]1CC[C@H](N(C)CCCc2ccc(F)cc2)CC1 [Example 64, 6-(4-{[3-(4-Fluorophenyl)propyl]methyl-amino}cyclohexyl)-5-methyl-3H-benzoxazol-2-one]		45 nM
COc1cc2[nH]c(=O)oc2cc1[C@H]1CC[C@H](N(C)CCCc2ccc(F)cc2)CC1 [Example 65, 6-(trans-4-{[3-(4-Fluorophenyl)propyl]methylamino}cyclohexyl)-5-methoxy-3H-benzoxazol-2-one]		67 nM

Results, then the compound that gave them:

melting point	IC50 [1]	Structure (SMILES)
293 to 307 °C		O=c1[nH]c2ccc([C@H]3CC[C@H](NCCCc4ccc(F)cc4)CC3)cc2o1 (as salt: HCl) [Example 4a, 6-{trans-4-[3-(4-Fluorophenyl)propylamino]cyclohexyl}-3H-benzoxazol-2-one]
241 to 243 °C		O=c1[nH]c2ccc([C@H]3CC[C@H](NCCSc4ccccc4)CC3)cc2o1 (as salt: HCl) [Example 5a, 6-[trans-4-(2-Phenylsulfanylethylamino)cyclohexyl]-3H-benzoxazol-2-one]
254 to 256 °C		O=c1[nH]c2ccc([C@H]3CC[C@H](NCCSc4ccc(F)cc4)CC3)cc2o1 (as salt: HCl) [Example 8, 6-{trans-4-[2-(4-Fluorophenylsulfanyl)ethylamino]cyclohexyl}-3H-benzoxazol-2-one]
263 to 265 °C		Cc1ccc(CCCN[C@H]2CC[C@@H](c3ccc4[nH]c(=O)oc4c3)CC2)cc1 (as salt: HCl) [Example 13a, 6-[cis-4-(3-p-Tolylpropylamino)cyclohexyl]-3H-benzoxazol-2-one]
285 to 295 °C		O=c1[nH]c2ccc([C@H]3CC[C@H](NCCCc4ccc(C(F)(F)F)cc4)CC3)cc2o1 (as salt: HCl) [Example 14, 6-{trans-4-[3-(4-Trifluoromethylphenyl)propylamino]cyclohexyl}-3H-benzoxazol-2-one]
107 to 110 °C		O=c1[nH]c2ccc([C@H]3CC[C@H](NCC[S+]([O-])c4ccccc4)CC3)cc2o1 (stereo partly drawn) (as salt: HCl) [Example 15, 6-[trans-4-(2-Benzenesulfinylethylamino)cyclohexyl]-3H-benzoxazol-2-one]
202 to 208 °C		O=c1[nH]c2ccc([C@H]3CC[C@H](NCCS(=O)(=O)c4ccccc4)CC3)cc2o1 (as salt: HCl) [Example 16, 6-[trans-4-(2-Benzenesulfonylethylamino)cyclohexyl]-3H-benzoxazol-2-one]
213 to 217 °C		CN(CCSc1ccc(F)cc1)[C@H]1CC[C@H](c2ccc3[nH]c(=O)oc3c2)CC1 (as salt: HCl) [Example 20, 6-{trans-4-[2-(4-Fluorophenylsulfanylethyl)methylamino]cyclohexyl}-3H-benzoxazol-2-one]
228 to 231 °C		CCN(CCCc1ccc(F)cc1)[C@H]1CC[C@H](c2ccc3[nH]c(=O)oc3c2)CC1 (as salt: HCl) [Example 25, 6-(trans-4-{Ethyl-[3-(4-fluorophenyl)propyl]amino}cyclohexyl)-3H-benzoxazol-2-one]
259 to 262 °C		O=c1[nH]c2ccc([C@H]3CC[C@H](N(CCO)CCCc4ccc(F)cc4)CC3)cc2o1 (as salt: HCl) [Example 29, 6-{trans-4-[[3-(4-Fluorophenyl)propyl]-(2-hydroxyethyl)amino]cyclohexyl}-3H-benzoxazol-2-one]
	17 nM	O=c1[nH]c2ccc([C@H]3CC[C@H](NCCCc4ccc(F)cc4)CC3)cc2[nH]1 [Example 62, 5-{trans-4-[3-(4-Fluorophenyl)propylamino]cyclohexyl}-1,3-dihydrobenzoimidazol-2-one]
